Experimental data from ChEMBL document CHEMBL1201862, “PubChem BioAssay data set” (2004).
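Protocol summary: plate cells (96-well), add compound at 5 concentrations, incubate 48 h, interpolate endpoints linearly. Abbreviation: GI50, concentration required for 50% inhibition of growth.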 Activity calls are given as the source filed them. No stated cut-off is given here; in the data, active = GI50 up to about 1.1 µM and inactive = higher.

Columns and labels:
Assay in all cases: NCI-60 cell line screen, 48 h
[1] = system: A498
[2] = system: NCI-H226
[3] = system: RPMI-8226
[4] = system: SR
[5] = system: SF-295
[6] = system: NCI/ADR-RES
[7] = system: NCI-H522
[8] = system: MOLT-4
[9] = system: COLO 205
[10] = system: OVCAR-8
[11] = system: K562
[12] = system: MCF7
[13] = system: CCRF-CEM
[14] = system: SNB-19
[15] = system: HT-29
[16] = system: UO-31
[17] = system: MDA-N
[18] = system: UACC-62
[19] = system: LOX IMVI
[20] = system: NCI-H460

Structure (SMILES) | GI50 [1] | GI50 [2] | GI50 [3] | GI50 [4] | GI50 [5] | GI50 [6] | GI50 [7] | GI50 [8] | GI50 [9] | GI50 [10] | GI50 [11] | GI50 [12] | GI50 [13] | GI50 [14] | GI50 [15] | GI50 [16] | GI50 [17] | GI50 [18] | GI50 [19] | GI50 [20]
CN1CSC(=S)N(c2cccc(C(F)(F)F)c2)C1 | 28.3 µM (inactive) | 24.3 µM (inactive) | 17.5 µM (inactive) | 23.4 µM (inactive) | 21.8 µM (inactive) | 26.9 µM (inactive) | 16.4 µM (inactive) | 24.7 µM (inactive) | 19 µM (inactive) | 25.4 µM (inactive) | 24 µM (inactive) | 17.3 µM (inactive) | 30.4 µM (inactive) | 21.5 µM (inactive) | 22.5 µM (inactive) | 26.4 µM (inactive) | 29.2 µM (inactive) | 16.9 µM (inactive) | 20.2 µM (inactive) | 20.2 µM (inactive)
COc1cc2c(c(O)c1OC)C(=O)[C@@H]1CCC(=O)N1C2c1ccccc1 (some centres undefined) | > 100 µM (inactive) | > 100 µM (inactive) | 45.7 µM (inactive) | 46.6 µM (inactive) | > 100 µM (inactive) | > 100 µM (inactive) | 28.5 µM (inactive) | 36 µM (inactive) | > 100 µM (inactive) | 57.5 µM (inactive) | 38.6 µM (inactive) | > 100 µM (inactive) | 30.5 µM (inactive) | > 100 µM (inactive) | 87.7 µM (inactive) | 39.6 µM (inactive) | > 100 µM (inactive) | 44.5 µM (inactive) | 97.1 µM (inactive) | > 100 µM (inactive)
COC(=O)/C(=N\NC(N)=O)C(C(=O)C(=O)Nc1ccccc1OC)c1nc2ccc([N+](=O)[O-])cc2nc1O (centres undefined) | > 100 µM (inactive) | > 100 µM (inactive) | > 100 µM (inactive) | > 100 µM (inactive) | > 100 µM (inactive) | > 100 µM (inactive) | > 100 µM (inactive) | > 10 µM (inactive) | – | > 100 µM (inactive) | 30 µM (inactive) | > 100 µM (inactive) | > 100 µM (inactive) | > 100 µM (inactive) | > 100 µM (inactive) | > 100 µM (inactive) | 55.1 µM (inactive) | > 100 µM (inactive) | > 100 µM (inactive) | > 100 µM (inactive)
Clc1ccc2c(NC3CCC(N4CCCCC4)CC3)ccnc2c1 (centres undefined) | 18.3 µM (inactive) | 25.1 µM (inactive) | 18.1 µM (inactive) | 13.2 µM (inactive) | 19.1 µM (inactive) | 34 µM (inactive) | 20.9 µM (inactive) | 14.6 µM (inactive) | 11.7 µM (inactive) | 29.4 µM (inactive) | 3.3 µM (inactive) | 28.8 µM (inactive) | 6.03 µM (inactive) | 32.7 µM (inactive) | 11.4 µM (inactive) | 13.9 µM (inactive) | 16.7 µM (inactive) | 17.9 µM (inactive) | 14.9 µM (inactive) | 15 µM (inactive)
C=C1C(=O)O[C@H]2[C@H]3O[C@@H](C[C@@H]12)[C@@]1(C)CC[C@H](O1)C(C)=CCC[C@H]3C | 1.63 µM (inactive) | 2.46 µM (inactive) | 0.513 µM (active) | 0.065 µM (active) | 5.16 µM (inactive) | 1.72 µM (inactive) | 1.77 µM (inactive) | 1.26 µM (inactive) | 1.81 µM (inactive) | 1.44 µM (inactive) | 1.08 µM (active) | 1.43 µM (inactive) | 0.324 µM (active) | 6.35 µM (inactive) | 1.34 µM (inactive) | 1.46 µM (inactive) | 1.53 µM (inactive) | 1.53 µM (inactive) | 1.52 µM (inactive) | 2.07 µM (inactive)
COC(=O)/C(C#N)=C/c1cc(C(C)(C)C)c(O)c(C(C)(C)C)c1 | 1.77 µM (inactive) | 1.96 µM (inactive) | 0.401 µM (active) | 0.904 µM (active) | 1.74 µM (inactive) | 1.11 µM (active) | 0.984 µM (active) | 2.2 µM (inactive) | 1.44 µM (inactive) | 2.99 µM (inactive) | 2.59 µM (inactive) | 2.66 µM (inactive) | 1.9 µM (inactive) | 3.17 µM (inactive) | 2.82 µM (inactive) | 2.17 µM (inactive) | 2.92 µM (inactive) | 1.76 µM (inactive) | 3.95 µM (inactive) | 1.95 µM (inactive)
C[C@]12CCC(O)CC1=CC[C@@H]1[C@@H]2CC[C@]2(C)C(=O)[C@H](n3ccnc3)C[C@@H]12 (some centres undefined) | > 100 µM (inactive) | > 100 µM (inactive) | 21.2 µM (inactive) | 32.4 µM (inactive) | 94.8 µM (inactive) | 39.8 µM (inactive) | 33.5 µM (inactive) | 17.9 µM (inactive) | 28.7 µM (inactive) | 37.4 µM (inactive) | 38 µM (inactive) | 35.8 µM (inactive) | 22.1 µM (inactive) | 79.1 µM (inactive) | 28.2 µM (inactive) | 75.9 µM (inactive) | 57.4 µM (inactive) | 47.5 µM (inactive) | 44.5 µM (inactive) | 40.9 µM (inactive)
